The values that follow come from patent US20250171459A1, “2-METHYL-4',5'-DIHYDROSPIRO[PIPERIDINE-4,7'-THIENO[2,3-C]PYRAN] DERIVATIVES AS INHIBITORS OF APOL1 AND METHODS OF USING SAME” (Vertex Pharmaceuticals Incorporated, priority 2022, published 2025).

The assay concerns the target T1, APOL1 (Homo sapiens, UniProt O14791).
T1 sequence (O14791 1-398 S342G/I384M): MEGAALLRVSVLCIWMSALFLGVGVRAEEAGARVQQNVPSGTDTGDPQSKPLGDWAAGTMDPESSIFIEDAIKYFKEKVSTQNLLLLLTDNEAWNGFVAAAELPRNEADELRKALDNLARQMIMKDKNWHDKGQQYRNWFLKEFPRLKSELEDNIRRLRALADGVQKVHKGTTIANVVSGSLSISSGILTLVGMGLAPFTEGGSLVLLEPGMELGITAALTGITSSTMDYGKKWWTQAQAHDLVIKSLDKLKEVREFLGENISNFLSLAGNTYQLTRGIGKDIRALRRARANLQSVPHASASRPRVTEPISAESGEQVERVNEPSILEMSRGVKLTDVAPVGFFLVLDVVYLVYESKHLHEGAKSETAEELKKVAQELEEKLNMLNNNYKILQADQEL
As to the kind of experiment: MultiTox-Fluor Multiplex Cytotoxicity Assay in tet-inducible APOL1 T-REx-HEK293 cells (cell rescue, ratio of dead to live cells). It counts as cell-based. Particulars: tet-inducible transgenic APOL1 T-REx-HEK293 cell lines, 50 ng/mL tet, 24 hours; read-out: IP50 (i.e., IC50 for cell proliferation). In outline: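 T-REx-HEK293 cells with tet-inducible APOL1 were treated with compound (10 μM top, 10-point 3-fold dilution, duplicate) plus 50 ng/mL tetracycline for 24 h at 37° C, in DMEM with 2% tet-free FBS. MultiTox-Fluor protease signals gave a dead/live ratio, normalized to no tet (100% viability) and tet alone (0%).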

`C[C@H]1C[C@@]2(CCN1Cc1cn(CCS(C)(=O)=O)nn1)OCC(F)(F)c1cc(Cl)sc12` [Compound 862, (2S,4R)-2′-chloro-4′,4′-difluoro-2-methyl-1-((1-(2-(methylsulfonyl)ethyl)-1H-1,2,3-triazol-4-yl)methyl)-4′,5′-dihydrospiro[piperidine-4,7′-thieno[2,3-c]pyran]]: the IC50 lay in the range of 100 to 500 nM.

With `C[C@H]1C[C@@]2(CCN1Cc1cn(CCS(C)(=O)=O)nn1)OCC(F)c1cc(Cl)sc12` (stereo partly drawn) [Compound 863, (2S,4R)-2′-chloro-4′-fluoro-2-methyl-1-((1-(2-(methylsulfonyl)ethyl)-1H-1,2,3-triazol-4-yl)methyl)-4′,5′-dihydrospiro[piperidine-4,7′-thieno[2,3-c]pyran]], the IC50 is 100 to 500 nM.

Take `C[C@H]1C[C@@]2(CCN1C1CCCC1O)OCCc1cc(C(F)(F)F)sc12` (stereo partly drawn) [Compound 864, 2-[(2′S,7R)-2′-methyl-2-(trifluoromethyl)spiro[4,5-dihydrothieno[2,3-c]pyran-7,4′-piperidine]-1′-yl]cyclopentanol]: the IC50 was in the range of 100 to 500 nM. For the molecule `C[C@H]1C[C@@]2(CCN1C1CCCC1O)OCCc1cc(C(F)(F)F)sc12` (stereo partly drawn) [Compound 865, 2-[(2′S,7R)-2′-methyl-2-(trifluoromethyl)spiro[4,5-dihydrothieno[2,3-c]pyran-7,4′-piperidine]-1′-yl]cyclopentanol], the IC50 lay within 100 to 500 nM.

For the molecule `C[C@H]1C[C@@]2(CCN1C1COCC1O)OCCc1cc(C(F)(F)F)sc12` (stereo partly drawn) [Compound 866, 4-[(2′S, 7R)-2′-methyl-2-(trifluoromethyl)spiro[4,5-dihydrothieno[2,3-c]pyran-7,4′-piperidine]-1′-yl]tetrahydrofuran-3-ol], the IC50 was 100 to 500 nM. In the case of `C[C@H]1C[C@@]2(CCN1C[C@H](O)C(N)=O)OCCc1cc(C(F)(F)F)sc12` [Compound 867, (2S)-2-hydroxy-3-[(2′S,7R)-2′-methyl-2-(trifluoromethyl)spiro[4,5-dihydrothieno[2,3-c]pyran-7,4′-piperidine]-1′-yl]propanamide] it was 100 to 500 nM.

As for `CNC(=O)[C@@H](O)CN1CC[C@]2(C[C@@H]1C)OCCc1cc(C(F)(F)F)sc12` [Compound 869, (2S)-2-hydroxy-N-methyl-3-[(2′S, 7R)-2′-methyl-2-(trifluoromethyl)spiro[4,5-dihydrothieno[2,3-c]pyran-7,4′-piperidine]-1′-yl]propanamide], the IC50 fell in the range of 500 to 1000 nM. On to `C[C@H]1C[C@@]2(CCN1Cc1cn(CCS(C)(=O)=O)nn1)OCCc1cc(C(F)(F)F)sc12` [Compound 870, (2′S, 7R)-2′-methyl-1′-[[1-(2-methylsulfonylethyl)triazol-4-yl]methyl]-2-(trifluoromethyl)spiro[4,5-dihydrothieno[2,3-c]pyran-7,4′-piperidine]], for which the IC50 is below 100 nM.

Regarding `C[C@H]1C[C@@]2(CCN1Cc1cn(CCS(C)(=O)=O)nn1)OCCc1c2sc(C(F)(F)F)c1CO` [Compound 871, [(2′S, 7R)-2′-methyl-1′-[[1-(2-methylsulfonylethyl)triazol-4-yl]methyl]-2-(trifluoromethyl)spiro[4,5-dihydrothieno[2,3-c]pyran-7,4′-piperidine]-3-yl]methanol], the IC50 is below 100 nM. Turning to `C[C@H]1C[C@@]2(CCN1Cc1cnn(CCS(C)(=O)=O)c1)OCCc1c2sc(C(F)(F)F)c1CO` [Compound 872, [(2′S,7R)-2′-methyl-1′-[[1-(2-methylsulfonylethyl)pyrazol-4-yl]methyl]-2-(trifluoromethyl)spiro[4,5-dihydrothieno[2,3-c]pyran-7,4′-piperidine]-3-yl]methanol], the IC50 is below 100 nM. As for `C[C@H]1C[C@@]2(CCN1Cc1cn[nH]c1)OCCc1c2sc(C(F)(F)F)c1CO` [Compound 873, [(2′S, 7R)-2′-methyl-1′-(1H-pyrazol-4-ylmethyl)-2-(trifluoromethyl)spiro[4,5-dihydrothieno[2,3-c]pyran-7,4′-piperidine]-3-yl]methanol], the IC50 is below 100 nM.

On to `C[C@H]1C[C@@]2(CCN1Cc1cn[nH]c1)OC[C@@H](O)c1cc(C(F)(F)F)sc12` [Compound 874, (2′S,4S,7R)-2′-methyl-1′-(1H-pyrazol-4-ylmethyl)-2-(trifluoromethyl)spiro[4,5-dihydrothieno[2,3-c]pyran-7,4′-piperidine]-4-ol], for which the IC50 was below 100 nM. For the molecule `C[C@H]1C[C@@]2(CCN1Cc1cnn(CCO)c1)OCCc1c2sc(C(F)(F)F)c1CO` [Compound 875], the IC50 was below 100 nM. Next, `C[C@H]1C[C@@]2(CCN1Cc1cnn(CC(C)(CO)CO)c1)OCCc1c2sc(C(F)(F)F)c1CO` [Compound 876]: below 100 nM; `C[C@H]1C[C@@]2(CCN1Cc1ccc3c(c1)n(C)c(=O)n3C)OCCc1c2sc(C(F)(F)F)c1CO` [Compound 877]: below 100 nM; `CC(O)c1c(C(F)(F)F)sc2c1CCO[C@@]21CCN(Cc2cnn(CCS(C)(=O)=O)c2)[C@@H](C)C1` (stereo partly shown) [Compound 878]: below 100 nM. Consider `CC(O)c1c(C(F)(F)F)sc2c1CCO[C@@]21CCN(Cc2cnn(CCS(C)(=O)=O)c2)[C@@H](C)C1` (stereo partly shown) [Compound 879], for which the IC50 was below 100 nM. For the molecule `C[C@H]1C[C@@]2(CCN1Cc1cnn(CCS(C)(=O)=O)c1)OCC(O)c1cc(C(F)(F)F)sc12` (stereo partly shown) [Compound 880], the IC50 was below 100 nM. Next, `C[C@H]1C[C@@]2(CCN1Cc1cnn(C3CN(S(C)(=O)=O)C3)c1)OCCc1c2sc(C(F)(F)F)c1CO` [Compound 883]: below 100 nM; `C[C@H]1C[C@@]2(CCN1Cc1cnn(C3CN(S(C)(=O)=O)C3)c1)OC[C@@H](O)c1cc(C(F)(F)F)sc12` [Compound 884]: below 100 nM. Next, `C[C@H]1C[C@@]2(CCN1Cc1cnn(CCO)c1)OC[C@@H](O)c1cc(C(F)(F)F)sc12` [Compound 885]: below 100 nM; `C[C@H]1C[C@@]2(CCN1Cc1cnn(CC(=O)N(C)C)c1)OC[C@@H](O)c1cc(C(F)(F)F)sc12` [Compound 886]: below 100 nM.

`C[C@H]1C[C@@]2(CCN1Cc1cnn(C[C@H](O)C(C)(C)O)c1)OCCc1c2sc(C(F)(F)F)c1CO` [Compound 887, (2S)-1-[4-[[(2′S, 7R)-3-(hydroxymethyl)-2′-methyl-2-(trifluoromethyl)spiro[4,5-dihydrothieno[2,3-c]pyran-7,4′-piperidine]-1′-yl]methyl]pyrazol-1-yl]-3-methyl-butane-2,3-diol]: the IC50 is below 100 nM. In the case of `C[C@H]1C[C@@]2(CCN1Cc1cnn(C[C@@H](O)C(C)(C)O)c1)OCCc1c2sc(C(F)(F)F)c1CO` [Compound 888, (2R)-1-[4-[[(2′S, 7R)-3-(hydroxymethyl)-2′-methyl-2-(trifluoromethyl)spiro[4,5-dihydrothieno[2,3-c]pyran-7,4′-piperidine]-1′-yl]methyl]pyrazol-1-yl]-3-methyl-butane-2,3-diol] it was below 100 nM.

As for `C[C@H]1C[C@@]2(CCN1Cc1cnn(C[C@H](O)C(C)(C)O)c1)OC[C@@H](O)c1cc(C(F)(F)F)sc12` [Compound 889, (2S)-1-[4-[[(2′S,4S,7R)-4-hydroxy-2′-methyl-2-(trifluoromethyl)spiro[4,5-dihydrothieno[2,3-c]pyran-7,4′-piperidine]-1′-yl]methyl]pyrazol-1-yl]-3-methyl-butane-2,3-diol], the IC50 is below 100 nM. In the case of `C[C@H]1C[C@@]2(CCN1Cc1cnn(C[C@@H](O)C(C)(C)O)c1)OC[C@@H](O)c1cc(C(F)(F)F)sc12` [Compound 890, (2R)-1-[4-[[(2′S,4S,7R)-4-hydroxy-2′-methyl-2-(trifluoromethyl)spiro[4,5-dihydrothieno[2,3-c]pyran-7,4′-piperidine]-1′-yl]methyl]pyrazol-1-yl]-3-methyl-butane-2,3-diol] it was below 100 nM.

Regarding `CC(C)C(O)Cn1cc(CN2CC[C@]3(C[C@@H]2C)OCCc2c3sc(C(F)(F)F)c2CO)cn1` (stereo partly drawn) [Compound 891, 1-[4-[[(2′S, 7R)-3-(hydroxymethyl)-2′-methyl-2-(trifluoromethyl)spiro[4,5-dihydrothieno[2,3-c]pyran-7,4′-piperidine]-1′-yl]methyl]pyrazol-1-yl]-3-methyl-butan-2-ol], the IC50 is below 100 nM.

On to `C[C@H]1C[C@@]2(CCN1Cc1cnn(CC(O)CC(F)(F)F)c1)OCCc1c2sc(C(F)(F)F)c1CO` (stereo partly shown) [Compound 892], for which the IC50 was below 100 nM. In the case of `C[C@H]1C[C@@]2(CCN1Cc1cnn(CC(O)COCC(F)(F)F)c1)OCCc1c2sc(C(F)(F)F)c1CO` (stereo partly shown) [Compound 893], the IC50 was below 100 nM. For `C[C@H]1C[C@@]2(CCN1Cc1cnn(CC(O)C(F)(F)F)c1)OCCc1c2sc(C(F)(F)F)c1CO` (stereo partly shown) [Compound 894], the IC50 was below 100 nM. As for `C[C@H]1C[C@@]2(CCN1Cc1cnn(CC(C)(C)O)c1)OCCc1c2sc(C(F)(F)F)c1CO` [Compound 895], the IC50 was below 100 nM. Next, `C[C@H]1C[C@@]2(CCN1Cc1cnn(CCC(N)=O)c1)OCCc1c2sc(C(F)(F)F)c1CO` [Compound 896, 3-[4-[[(2′S, 7R)-3-(hydroxymethyl)-2′-methyl-2-(trifluoromethyl)spiro[4,5-dihydrothieno[2,3-c]pyran-7,4′-piperidine]-1′-yl]methyl]pyrazol-1-yl]propanamide]: below 100 nM.

For `C[C@H]1C[C@@]2(CCN1Cc1cnn(CC(=O)N(C)C)c1)OCCc1c2sc(C(F)(F)F)c1CO` [Compound 897], the IC50 was below 100 nM.

Take `C[C@H]1C[C@@]2(CCN1Cc1cnn(CCCC(N)=O)c1)OCCc1c2sc(C(F)(F)F)c1CO` [Compound 898]: the IC50 is below 100 nM.
